In ChEMBL document CHEMBL3046610, “Synthesis and Biological Activities of Fluorinated Plant Growth Regulators, 4, 4, 4-Trifluoro-3-(3-indolyl)butyric Acids and 4, 4, 4-Trifluoro-3-(2-indolyl)butyric Acid Bearing a Methyl Group on the Indole Nucleus” (1997):
Calls of active or inactive are those of the source. No cut-off for these calls is given here.

Columns and labels:
Oryza sativa [1] = test: Growth promoting activity in Oryza sativa (rice) assessed as increase in shoot length at 1 x 10^-6 M relative to control; type: functional
Lactuca sativa [2] = test: Growth promoting activity in Lactuca sativa (lettuce) assessed as increase in root length at 1 x 10^-4 M relative to control; type: functional, organism-based
Oryza sativa [3] = test: Growth promoting activity in Oryza sativa (rice) assessed as increase in shoot length at 1 x 10^-4 M relative to control; type: functional
Lactuca sativa [4] = test: Growth promoting activity in Lactuca sativa (lettuce) assessed as increase in root length at 1 x 10^-5 M relative to control; type: functional, organism-based
Oryza sativa [5] = test: Growth promoting activity in Oryza sativa (rice) assessed as increase in root length at 1 x 10^-4 M relative to control; type: functional
Oryza sativa [6] = test: Growth promoting activity in Oryza sativa (rice) assessed as increase in shoot length at 1 x 10^-5 M relative to control; type: functional
Oryza sativa [7] = test: Growth promoting activity in Oryza sativa (rice) assessed as increase in root length at 1 x 10^-6 M relative to control; type: functional
Oryza sativa [8] = test: Growth promoting activity in Oryza sativa (rice) assessed as increase in root length at 1 x 10^-3 M relative to control; type: functional, organism-based
Oryza sativa [9] = test: Growth promoting activity in Oryza sativa (rice) assessed as increase in root length at 1 x 10^-5 M relative to control; type: functional
Oryza sativa [10] = test: Growth promoting activity in Oryza sativa (rice) assessed as increase in shoot length at 1 x 10^-3 M relative to control; type: functional
Brassica rapa [11] = test: Growth promoting activity in Brassica rapa (Chinese cabbage) assessed as increase in root length at 1 x 10^-3 M relative to control; type: functional, organism-based
Brassica rapa [12] = test: Growth promoting activity in Brassica rapa (Chinese cabbage) assessed as increase in root length; type: functional, organism-based
Brassica rapa [13] = test: Growth promoting activity in Brassica rapa (Chinese cabbage) assessed as increase in root length at 1 x 10^-4 M relative to control; type: functional

Structure (SMILES) | Activity (Oryza sativa [1]) | Activity (Lactuca sativa [2]) | Activity (Oryza sativa [3]) | Activity (Lactuca sativa [4]) | Activity (Oryza sativa [5]) | Activity (Oryza sativa [6]) | Activity (Oryza sativa [7]) | Activity (Oryza sativa [8]) | Activity (Oryza sativa [9]) | Activity (Oryza sativa [10]) | Activity (Brassica rapa [11]) | Activity (Brassica rapa [12]) | fold change (FC) (Brassica rapa [13])
Cc1[nH]c2ccccc2c1C(CC(=O)O)C(F)(F)F (racemic) | 98.8% | inactive | 84% | inactive | 168% | 103.2% | 111.8% | inactive | 242% | 36.6% | inactive |  | 
Cc1cccc2[nH]cc(C(CC(=O)O)C(F)(F)F)c12 (racemic) | 103.6% | Active | 86.4% | Active | 274.6% | 102.7% | 172.5% | inactive | 357.5% | 33.7% | inactive | Active | 2.5
Cc1ccc2[nH]cc(C(CC(=O)O)C(F)(F)F)c2c1 (racemic) | 100.5% | Active | 90% | Active | 331.1% | 105.5% | 168.5% | inactive | 382.4% | 31.9% | inactive |  | 
Cc1ccc2c(C(CC(=O)O)C(F)(F)F)c[nH]c2c1 (racemic) | 103.3% | Active | 95.9% | Active | 311.4% | 106.2% | 172% | inactive | 377.5% | 31.5% | inactive | Active | 2.5
Cc1cccc2c(C(CC(=O)O)C(F)(F)F)c[nH]c12 (racemic) | 96% | Active | 83.3% | Active | 224.4% | 112.8% | 126% | inactive | 277.1% | 36.9% | inactive | Active | 2.5
Cc1c(C(CC(=O)O)C(F)(F)F)[nH]c2ccccc12 (racemic) | 98.4% | inactive | 99% | Active | 433.3% | 106.2% | 134.6% | inactive | 266% | 38.2% | inactive | Active | 2.5
Cn1cc(C(CC(=O)O)C(F)(F)F)c2ccccc21 (racemic) | 94.6% | Active | 86.2% | inactive | 153.4% | 105.3% | 136.2% | inactive | 211.1% | 46% | inactive | inactive | 
O=C(O)CC(c1c[nH]c2ccccc12)C(F)(F)F (racemic) | 99.2% |  | 76.7% |  | 199.5% | 99% | 128.9% | inactive | 290.1% | 35.6% |  |  | 
